Assay results as given in patent EP3494998A1, “GLYCOSYLATED PSMA INHIBITORS FOR IMAGING AND ENDORADIOTHERAPY” (Technische Universität München, priority 2017, dated 2019).
Read-outs that look alike come from different tables or passages of the source.

How the values were obtained:
LNCaP cells [1] = test: cell surface binding and internalization in LNCaP cells; assay type: cell-based, human; details: for Internalization [%]: normalized to reference ([125I]I-BA)KuE, corrected for unspecific binding, c = 0.2 nM for 68Ga and 0.5 nM for 177Lu compounds, 37°C, 1 h, 125,000 cells/well, mean ± SD (n = 3); for internalized fraction of total applied activity: 60 min incubation, not normalized, 0.2 nM (68Ga) or 0.5 nM (177Lu)
Description: One day (24h ± 2h) prior to all experiments with LNCaP cells, the cultivated cells were harvested using a mixture of trypsin/ethylendiaminetetraacetate (0.05%/ 0.02%) and phosphate buffered saline and centrifuged. After centrifugation, the supernatant was disposed and the cell pellet resuspended in culture medium. Afterwards, cells were counted with a hemocytometer (Neubauer) and seeded in 24-well plates. […]
To differentiate between the cell surface bound and internalized fraction, a PMPA-wash (1.0 µM) was performed to remove the specifically bound radioligand.

[2] = molecular target: human serum albumin (HSA) (Homo sapiens, UniProt P02768); test: HSA binding by HPLC on a column with immobilized human albumin; details: natGa- and natLu-labeled inhibitors; HPLC retention time with non-linear regression calibration on nine reference substances
Excerpt: The Fmoc-(9-fluorenylmethoxycarbonyl-) and all other protected amino acid analogs were purchased from Bachem (Bubendorf, Switzerland) or Iris Biotech (Marktredwitz, Germany). Dr. Schottelius from the laboratory of Prof. […] The tritylchloride polystyrene (TCP) resin was obtained from PepChem (Tubingen, Germany). Chematech (Dijon, France) delivered the chelator DOTAGA-anhydride. All necessary solvents and other organic reagents were purchased from either Alfa Aesar (Karlsruhe, Germany), Sigma-Aldrich (Munich, Germany) or VWR (Darmstadt, Germany). Solid phase synthesis of the peptides was carried out by manual operation using an Intelli-Mixer syringe shaker (Neolab, Heidelberg, Germany). […] Analysis of the peptides was performed by applying different gradients of 0.1% (v/v) trifluoroacetic acid (TFA) in H2O (solvent A) and 0.1% TFA (v/v) in acetonitrile (MeCN) (solvent B) with a constant flow of 1 mL/min (specific gradients are cited in the text). […] Human serum albumin (HSA) binding was determined using a Chiralpak HSA 50 x 3 mm 5µm Analytical Column connected to a Chiralpak HSA 10 x 3 mm 5µm Guard Cartridge (Daicel Chemical Industries) purchased from Chiral Technologies Europe (France). Non-linear regression for the HSA binding was performed using OriginPro 2016G. Both retention times tR as well as the capacity factors K' are cited in the text. Preparative RP-HPLC of the peptides was achieved on a Shimadzu HPLC system using a Multospher 100 RP 18-5 (250 x 20 mm) column (CS GmbH, Langerwehe, Germany) with a constant flow of 5 mL/min. […] Radioactivity was detected through connection of the outlet of the UV-photometer to a Nal(TI) well-type scintillation counter from EG&G Ortec (Munich, Germany). […] ESI-mass spectra were acquired on an expression^L CMS mass spectrometer (Advion Ltd., Harlow, UK) and on a Varian 500-MS IT mass spectrometer (Agilent Technologies, Santa Clara, USA). For the HSA binding experiment a Chiralpak HSA 50 x 3 mm 5µm Analytical Column, (Daicel Chemical Industries, LTD) connected to a Chiralpak HSA 10 x 3 mm 5µm Guard Cartridge (Daicel Chemical Industries; Chiral Technologies Europe) was used. Blood samples were collected from volunteers.
The mobile phase consisted of a binary gradient system with a constant total flow rate of 0.5mL/min. Mobile phase A was a 50 mM pH 6.9 ammonium acetate solution, mobile phase B was 2-Propanol (HPLC grade, VWR, Germany). The gradient, of mobile phase A was 100% from 0 to 3 min and from 3 min to the end of each run, mobile phase B was set 20%. […] Afterwards, the actual PSMA inhibitors with unknown HSA binding were measured. More details are found in the supplementary info.
To diminish the influence of temperature and small pH fluctuations of the NH4OAc buffer on binding (retention time), a set of nine substances with known HSA binding coefficients was used to establish a calibration line by non-linear regression (log retention time vs. log HSA [%] binding).

PSMA [3] = molecular target: T1, PSMA (Homo sapiens, UniProt Q04609); details: PSMA I&T (18), values taken from a previous publication (Weineisen 2014), same binding assay; cited from earlier work
T1 construct: PSMA-positive LNCAP cells (200265; Cell Lines Service GmbH) were cultivated; host or cells: LNCaP human prostate cancer cells

LNCaP cells [4] = details: PSMA I&T (18), data from a previous publication (Weineisen 2014), normalized to ([125I]I-BA)KuE, 60 min, cited from earlier work
LNCaP tumor xenografts = test: µPET imaging in mice bearing LNCaP tumor xenografts; details: 85 min p.i.; dynamic µPET; LNCaP xenograft
Description: For the tumor model, LNCaP cells (approx. 10^7 cells) were suspended 1:1 in serum-free DMEM-F12 medium and Matrigel (BD Biosciences, Germany) and inoculated onto the right shoulder of male, 6 to 8 weeks old CB-17 SCID mice (Charles River Laboratories, Sulzfeld, Germany). Animals were used after the tumor size reached 4 to 8 mm in diameter for experiments.
Imaging experiments were conducted using a Siemens Inveon small animal PET and data analyzed by the associated Inveon Research Workplace software. […] Dynamic imaging was carried out after on-bed injection for 90 min. The static blockade image was obtained, after 1 h p.i. with 15 min acquisition time. Blockade was done by coinjection of 8mg/kg of PMPA. All images were reconstructed using an OSEM3D algorithm without scanner and attenuation correction.
Over a period of 90 min, comparative dynamic µPET scans were performed with ^68Ga-13 and ^68Ga-18 in CB-17 SCID mice bearing LNCaP tumor xenografts to assess the kinetic tissue distribution.

PSMA [5] = molecular target: T1, PSMA; test: competitive binding assay (IC50) on LNCaP cells with ([125I]I-BA)KuE as radioligand; details: LNCaP cells (150,000/well); ([125I]I-BA)KuE (c = 0.2 nM) as radioligand; HBSS (1% BSA), 4°C, 1 h; natGa or natLu analogs; mean ± SD (n = 3)
Description: One day (24h ± 2h) prior to all experiments with LNCaP cells, the cultivated cells were harvested using a mixture of trypsin/ethylendiaminetetraacetate (0.05%/ 0.02%) and phosphate buffered saline and centrifuged. After centrifugation, the supernatant was disposed and the cell pellet resuspended in culture medium. Afterwards, cells were counted with a hemocytometer (Neubauer) and seeded in 24-well plates.
Cells were incubated in HBSS (1% BSA) at 4°C for 1 h.

[6] = lipophilicity (logP), shake flask method; assay type: physicochemical; details: n-octanol and PBS (pH 7.4); radiolabeled compounds; mean ± SD (n = 6)
Description: The logP values were determined as described (Weineisen, M., et al., Synthesis and preclinical evaluation of DOTAGA-conjugated PSMA ligands for functional imaging and endoradiotherapy of prostate cancer. EJNMMI research, 2014. 4(1): p. 1). The experimental details are described in the supplementary info.
The determination of the logP was used to assess lipophilicity. The values for the respective radiolabeled compounds from Table 2 were obtained using the shake flask method (n = 6) in n-octanol and PBS (pH 7.4). […] For all compounds, the respective ^177Lu-labeled analog was more lipophilic than the ^68Ga-labeled counterpart.

T1 sequence (Q04609 whole entry): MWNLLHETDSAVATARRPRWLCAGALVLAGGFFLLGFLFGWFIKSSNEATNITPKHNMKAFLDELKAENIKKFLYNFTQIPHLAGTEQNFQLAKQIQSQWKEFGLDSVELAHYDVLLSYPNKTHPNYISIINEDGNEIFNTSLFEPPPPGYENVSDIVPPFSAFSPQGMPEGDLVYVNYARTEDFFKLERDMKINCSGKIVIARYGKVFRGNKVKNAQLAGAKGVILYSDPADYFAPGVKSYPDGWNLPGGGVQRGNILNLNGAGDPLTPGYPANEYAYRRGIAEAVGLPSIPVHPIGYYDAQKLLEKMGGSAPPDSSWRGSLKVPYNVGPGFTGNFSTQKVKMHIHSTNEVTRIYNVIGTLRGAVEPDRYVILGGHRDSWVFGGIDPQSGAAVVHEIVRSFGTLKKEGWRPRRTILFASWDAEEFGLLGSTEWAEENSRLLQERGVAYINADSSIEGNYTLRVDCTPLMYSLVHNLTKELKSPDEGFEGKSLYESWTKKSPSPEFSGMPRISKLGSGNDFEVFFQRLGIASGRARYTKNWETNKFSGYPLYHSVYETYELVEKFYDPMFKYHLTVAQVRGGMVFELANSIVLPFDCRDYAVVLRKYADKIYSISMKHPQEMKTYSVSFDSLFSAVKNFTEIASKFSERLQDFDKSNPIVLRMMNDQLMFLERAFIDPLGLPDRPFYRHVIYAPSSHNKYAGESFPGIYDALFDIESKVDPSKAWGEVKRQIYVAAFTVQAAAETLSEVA
Chain of human serum albumin (HSA) (P02768 25-609): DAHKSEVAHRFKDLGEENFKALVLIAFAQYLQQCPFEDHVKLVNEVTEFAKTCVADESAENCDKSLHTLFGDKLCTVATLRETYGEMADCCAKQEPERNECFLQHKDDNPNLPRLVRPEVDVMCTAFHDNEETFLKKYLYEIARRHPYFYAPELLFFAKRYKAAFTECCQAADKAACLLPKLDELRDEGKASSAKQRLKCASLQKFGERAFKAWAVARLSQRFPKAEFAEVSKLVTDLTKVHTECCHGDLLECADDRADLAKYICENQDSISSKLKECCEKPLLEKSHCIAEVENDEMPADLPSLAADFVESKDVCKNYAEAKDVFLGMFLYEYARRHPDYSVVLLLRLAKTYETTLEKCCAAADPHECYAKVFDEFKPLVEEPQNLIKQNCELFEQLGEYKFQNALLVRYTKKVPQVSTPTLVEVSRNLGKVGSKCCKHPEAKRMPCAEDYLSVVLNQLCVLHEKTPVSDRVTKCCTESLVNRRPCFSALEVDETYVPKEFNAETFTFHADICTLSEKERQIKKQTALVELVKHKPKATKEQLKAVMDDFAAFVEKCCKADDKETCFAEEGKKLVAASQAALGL
Description for human blood samples: Separation of the different blood cells was accomplished by stepwise centrifugation. Erythrocytes were gained after centrifugation at 700 g (1,400 rpm, Biofuge 15, Heraus Sepatech, Osterode, Germany) for 5 min and the pellet was rinsed with 500 µL of ice-cold PBS and again centrifuged. Leukocytes were gained by combination of the supernatant and subsequent centrifugation at 3,100 g (6,200 rpm) with a further washing step with 500 µL of ice-cold PBS and repeated centrifugation. The activities of the pellets (erythrocytes and leukocytes) and the supernatant were measured in a γ-counter. PSMA specific binding was determined by co-incubation with PMPA solution (100 µM).
In addition, 1.0 MBq of the used radiolabeled PSMA ligands were incubated in the presence of PMPA solution (100 µM) to differentiate between specific and unspecific binding.

IC50 (PSMA [5]) | logP [6] | Substance | Internalization [%] (LNCaP cells [1]) | HSA [%] [2] | further results
 |  | PSMA I&T Galactose [compound 13] | 18.7% ± 4.1% |  | 
 |  | [^68Ga]PSMA I&T [^nat/68Ga-18] |  | 48.7% | IC50 (PSMA [3]): 9.4 ± 2.9 nM; Internalization [%] (LNCaP cells [4]): 59.2 ± 1.7%; Internalization [%] (LNCaP cells [4]; listed as [^68Ga]PSMA I&T): 59.2% ± 1.7%; tumor accumulation (LNCaP tumor xenografts): 5.8 ± 0.3 %ID/mL
 |  | [^177Lu]PSMA I&T [^nat/177Lu-18] |  | 78.6% | IC50 (PSMA [3]): 7.9 ± 2.4 nM; Internalization [%] (LNCaP cells [4]): 75.5 ± 1.6%; Binding to erythrocytes (human blood samples; simultaneous incubation with PMPA (100 µM)): 29.2%; leukocyte fraction (human blood samples; with PMPA (100 µM)): 0.2%; supernatant (human blood samples; with PMPA (100 µM)): 70.7%; Binding to erythrocytes (human blood samples; without PMPA): 38.9%; leukocyte fraction (human blood samples; without PMPA): 0.1%; supernatant (human blood samples; without PMPA): 61.1%
 | -4.15 ± 0.07 | [^natGa]PSMA I&T Galactose [^nat/68Ga-13] | 18.7 ± 4.1% | 7.7% | 
7.1 ± 0.3 nM | -4.01 ± 0.08 | [^natGa]PSMA I&T Mannose [^nat/68Ga-14] | 8.4 ± 0.2% |  | 
5.8 ± 0.6 nM | -3.95 ± 0.12 | [^natLu]PSMA I&T Galactose [^nat/177Lu-13] | 60.2 ± 2.8% | 23.3% | internalized fraction of total applied activity (LNCaP cells [1]): 11.3%
5.9 ± 0.5 nM | -3.85 ± 0.04 | [^natLu]PSMA I&T Mannose [^nat/177Lu-14] | 35.3 ± 2.9% |  | 

Substance | IC50 (PSMA [5]) | logP [6] | Internalization [%] (LNCaP cells [1]) | HSA [%] [2] | further results
[^natGa]PSMA I&T Cellubiose [^nat/68Ga-15] | 10.8 ± 1.7 nM |  | 4.0 ± 0.6% |  | internalized fraction of total applied activity (LNCaP cells [1]): 1.3%
[^natLu]PSMA I&T Cellobiose [^nat/177Lu-15] | 12.5 ± 2.3 nM | -4.04 ± 0.1 | 22.3 ± 1.2% | 19.9% | 
